Assay [1] has as its system PBMCs (non-proliferating, healthy donors). The experiment in a line: Cell viability, trypan blue exclusion. The note with it: Homo sapiens, PBMC, 48 h of treatment, read-out: IC50 ± SD, cell viability, PBMCs. Format: cell-based. As to the method:
(§1) Peripheral blood mononuclear cells (PBMCs) from healthy donors were isolated as previously described. Freshly isolated PBMCs were either cultured and treated at 1.10^6 cells/mL (non-proliferating PBMCs) or stimulated with phytohaemoagglutinin (PHA) and interleukin (IL)-2 (called PHA_PBMCs) to induce blastogenesis in T lymphocytes before treatments as previously described. Briefly, freshly isolated PBMCs were seeded at a concentration of 2.10^6 cells/mL in RMPI 1640 supplemented with 1% antibiotic-antimycotic (Lonza, Verviers, Belgium) and 10% human AB serum (Corning, Fisher scientific, Merelbeke, Belgium). After overnight incubation, floating lymphoid cells were collected and seeded at 1.10^6 cells/mL in RMPI 1640 supplemented with 1% antibiotic-antimycotic, 5% FBS, 10% human AB serum, 1 μg/mL PHA (Gentaur, Kampenhout, Belgium), 50 U/mL IL-2 (Roche, Prophac, Luxembourg City, Luxembourg), 1% non-essential amino acids (Invitrogen, Luxembourg), 1% HEPES (Invitrogen, Luxembourg), 1% sodium pyruvate (Invitrogen, Luxembourg), and 0.1% β-mercaptoethanol (Invitrogen, Luxembourg). After 72 h, the cells were seeded at 1.10^6 cells/mL in the same mitogenic growth medium described just above and treated with test compounds.
(§2) Proliferation and viability of U-937, KG-1, RAJI, PC-3, MDA-MB-231, RPMI1788, PBMCs, and PHA_PBMCs were assessed by trypan blue exclusion assays at the indicated time points. Nuclear morphology changes associated with apoptosis and necrosis were evaluated by fluorescence microscopy after Hoechst and propidium iodide (PI) staining as previously described.
(§3) IC50 values of compounds against cellular viability were determined by using nonlinear regression fitting curves with GraphPad Prism 8 or CalcuSyn software The t test used for statistical analyses was performed with GraphPad Prism 8. All the tests were one-tailed, and a p value < 0.05 was considered statistically significant.

For assay [2], the system named is PHA_PBMCs (phytohemagglutinin-stimulated PBMCs). The assay is described as follows: Cell viability, trypan blue exclusion. Format: cell-based. Particulars: Homo sapiens, PBMC; 48 h of treatment; proliferating, PHA-stimulated; read-out: IC50 ± SD, cell viability, PHA_PBMCs. As to the method:
as §1, §2, §3

In assay [3] the test system is DNMT3A protein level in HCT116 cells. The experiment in a line: Western blot of DNMT3A protein in HCT116. Format: cell-based, human. The note with it: 24 h; MC3353 effect detectable at 0.1 μM. From the text:
(§4) Cells were lysed in Laemmli buffer; subsequently, the proteins were resolved by sodium dodecyl sulfate-polyacrylamide gel electrophoresis and transferred to a 0.45-μm nitrocellulose membrane (Bio-Rad Laboratories, Hercules, CA). The following primary antibodies were used for immunoblotting: α-E-cadherin (BD Transduction Laboratories, Franklin Lakes, NJ), α-MMP2 (Abcam), α-DNMT3a (Santa Cruz Biotechnologies, Dallas, TX), and α-GAPDH (Millipore Corp., Bedford, MA), used as a loading control. The immune complexes were detected with horseradish peroxidase-conjugated species-specific secondary antiserum (Bio-Rad Laboratories, Milan, Italy) then by enhanced chemiluminescence reaction (Bio-Rad Laboratories, Milan, Italy). Densitometric analysis of protein expression was performed by using the Fiji ImageJ image processing package.
(§5) GAPDH was used as a loading control. Blots are representative of two independent experiments

The subject of assay [4] is DNMT3A protein level in PC-3 cells. The assay is described as follows: Western blot of DNMT3A protein in PC-3. It counts as cell-based, human. The note with it: 24 h; 1 μM requested for the effect.
Text: as §4, §5

Assay [5] concerns E-cadherin protein in PC-3 cells. The assay is described as follows: Western blot of E-cadherin in PC-3. It counts as cell-based, human. The note with it: 1 μM, 24 h.
Text: as §4
Fig. 8 Effects of MC3353 on E-cadherin and MMP2 protein expression levels in PC-3 cancer cells. Cells were treated with vehicle (DMSO) used as control (CTR) or MC3353 for 24 h. a E-cadherin and MMP2 protein detection by western blot. GAPDH was used as a loading control. Blots are representative of three independent experiments. b Densitometric analysis of E-cadherin and MMP2 protein expression. Significance is represented as *p < 0.05 related to the control groups. Data were obtained from three independent experiments and expressed as mean ± SEM

The next assay concerns Saos-2 cells. The assay is described as follows: Saos-2 matrix mineralization, Alizarin red staining. It counts as cell-based, human. Particulars: 7–21 days, differentiation medium. As to the method:
Four days after seeding, Saos-2 cells were exposed to specific osteogenic medium (IMDM supplemented with 2% FBS, 5 mM β-glycerophosphate, and 50 μg/mL ascorbic acid, Sigma-Aldrich, Milan, Italy) without (control) or with MC3353 (0.5–1 μM) or DAC (0.1–0.5 μM) and maintained in differentiating conditions for up to 21 days. The medium was renewed every 4 days, and the cells were harvested at various time points to collect total RNA and verify bone mineralization. Specific osteoblastic markers were evaluated by quantitative real-time PCR (RT-qPCR) as previously described. The primers or assays (Applied Biosystems, Foster City, CA, USA) used are as follows: GAPDH (forward: 5′-[…]-3′, reverse: 5′-[…]-3′ and probe: 5′-[…]-3′), OCN (forward: 5′-[…]-3′, reverse: 5′-[…]-3′), ALP (Hs01029144_m1), and COL1A2 (Hs01028970_m1). Amplification reactions were performed using a ViiA7™ Real-Time PCR System (Life Technologies, Carlsbad, CA, USA). To visualize bone mineralization (osteoblastic differentiation) after 7–21 days of MC3353 or DAC treatment, the plates were stained with 40 mM Alizarin red stain (ARS, Sigma-Aldrich, Milan, Italy). ARS staining was visualized with an ECLIPSE 90i microscope (Nikon, Minato, Tokyo, Japan) equipped with Plan fluor 10× NA 0.3. […]

Assay [6] concerns KG-1, U-937, RAJI, PC-3, MDA-MB-231 cancer cells. The experiment in a line: Viability in panel of cancer cells. Format: cell-based. The note with it: Homo sapiens, 48 h of treatment, range over KG-1, U-937, RAJI, read-out: IC50 values, proliferation/viability in cancer cell panel. As to the method: as §2, §3
The subject of assay [7] is primary osteosarcoma cell lines. The experiment in a line: Growth inhibition in panel of primary osteosarcoma cell lines. Format: cell-based. Particulars: Homo sapiens; range over the osteosarcoma panel. As to the method: To perform osteosarcoma cell growth inhibition experiments, 2 × 10^5 cells/well were plated, and MC3353 (0.1–30 μM) or DAC (0.5 μM) was added after 24 h. Cells were exposed for up to 96 h before being counted by Trypan blue vital cell count (Sigma-Aldrich, Milan, Italy). In parallel, the cells were treated with DMSO-containing medium as a control. The highest final concentration of DMSO in the medium was < 0.005%, and DMSO had no effect on cell growth.
as §3

With `O=C(Nc1ccc(NC(=O)c2ccc(Nc3ccnc4ccccc34)cc2)cc1)OCc1ccccc1` [MC3353, Benzyl (4-(4-(quinolin-4-ylamino)benzamido)phenyl)carbamate], the IC50 in assay [1] is 8.9 ± 4.2 µM; in assay [2], 4.6 ± 0.5 µM; in assay [6], 0.3 to 0.9 µM; in assay [7], 1.1 to 2.4 µM. Besides, the “DNMT3A protein expression level (western blot), HCT116” value in assay [3] was “DNMT3A protein downregulation was observed”. Also, the “DNMT3A protein expression level (western blot), PC-3” value in assay [4] was “DNMT3A protein downregulation was observed”. In addition, the “E-cadherin protein expression (western blot, densitometry), PC-3” value in assay [5] is “significantly induced E-cadherin expression”. In the assay with Saos-2 cells, the “mineralized matrix production (ARS staining), Saos-2” value was “augment mineralized matrix production”.

The record behind these values is article PMC6501426 (Clinical Epigenetics, 2019).
